From patent publication US4683198A, “Novel maltose dehydrogenase, process for its production, and analytical method using the same” (Toyo Jozo Kabushiki Kaisha, priority 1983, dated 1987)

test system: maltose dehydrogenase (acceptor); assay: Km value, substrate concentration-reaction rate relation; format: biochemical, Staphylococcus sp. B-0875; conditions: approximate, calculated according to FIG. 5; no linear Lineweaver-Burk plot
Description: Under the experimental conditions, Vmax cannot be determined and no linear Lineweaver-Burk plot can be obtained.

Compound	Km [mM]
OC[C@H]1O[C@H](O[C@H]2[C@H](O)[C@@H](O)[C@H](O)O[C@@H]2CO)[C@H](O)[C@@H](O)[C@@H]1O [maltose]	~3.8
OC[C@H]1O[C@H](O[C@H]2[C@H](O)[C@@H](O)[C@H](O)O[C@@H]2CO)[C@H](O)[C@@H](O)[C@@H]1O [β-maltose]	1.36

test system: maltose dehydrogenase (acceptor); assay: Effect of surface-active agents on enzyme activity; format: biochemical, Staphylococcus sp. B-0875; conditions: Concentration 0.1%, in place of 0.2% Triton X-100; no addition = 100
Description: (§1) The above reaction mixture (1.0 ml) in a small test tube is pre-incubated at 37° C. Enzyme solution (10 μl) is added thereto and incubated at 37° C. for 10 min. The reaction is stopped by adding 0.1N HCl (2.0 ml) and the optical density at 550 nm (As) is measured. Distilled water (10 μl) is added as a control and the amount measured at 550 nm (Ab).
Surface active agents as in Table 5 are added one at a time to aliquots of the reaction mixture as in the assay method, in place of 0.2% Triton X-100, and the enzyme activity is measured.

Compound	Relative Activity (%)
CCCCCCCCCCCCCCCC[N+](C)(C)C.[Cl-] [Cetyl trimethylammonium chloride]	94
CCCCCCCCCCCCOS(=O)(=O)O [SDS]	3.8
CCCCCCCCCCCCCCCC(=O)N(C)CC(=O)[O-].[Na+] [Sarcosinate PN]	114
C[C@H](CCC(=O)O)[C@H]1CC[C@H]2[C@@H]3[C@H](O)C[C@@H]4C[C@H](O)CC[C@]4(C)[C@H]3C[C@H](O)[C@]12C [Sodium cholate]	86
Sodium laurylbenzene sulfate	0.2
Span-85	103
Triton X-100	115
Tween-80	104

test system: serum amylase; assay: Serum amylase assay with different hydrogen acceptors (Example 12); format: biochemical; conditions: 0.002% hydrogen acceptor; human serum 20 μl; 37° C.; absorbancy at 550 nm
Description: 40 mM phosphate buffer pH 7.0
maltose dehydrogenase (acceptor) (16.7 U/ml)
Human serun (20 μl) was added to the reaction mixture hereinabove (the hydrogen acceptor is shown in Table 6), and the material was incubated at 37° C. for 5 mins. Reaction mixture II (0.4 ml) was added thereto and the material was incubated at 37° C. Changes in absorbancy at 550 nm were measured. The results are shown in Table 6, from which it will be seen that serum amylase can be measured whatever the hydrogen acceptor.

Compound	Relative Amylase Activity [%]
CC(=O)Nc1cccc2c1nc1ccccc1[n+]2C [1-acetamide-phenazine methosulfate]	103
COc1cccc2c1nc1ccccc1[n+]2C [MPMS, 1-methoxy-phenazine methosulfate]	102
C[n+]1c2ccccc2nc2ccccc21 [PMS, phenazine methosulfate]	100
C[N+](C)=c1ccc2nc3c(ccc4ccccc43)oc-2c1 [meldola blue, 9-dimethylaminobenzophenazoxonium chloride]	97.4

test system: maltose dehydrogenase (acceptor); assay: Substrate specificity of maltose dehydrogenase (acceptor), PMS/NTB assay at 550 nm; format: biochemical, Staphylococcus sp. B-0875; conditions: substrate each 0.1M, 0.1 ml, in place of maltose; 37° C., 10 min
Description: 20 mM phosphate buffer (pH 7.5)
0.1% bovine serum albumin
0.025% nitrotetrazolium blue (NTB)
0.001% phenazine methosulfate (PMS: hydrogen acceptor)
as §1
One unit is defined by the amount of enzyme which oxidizes (dehydrogenates)1 μmole of maltose in one minute and enzyme activity is calculated by the following equation: [formula]
Maltose in the above assay method is replaced by the substrates in Table 2 (each 0.1M, 0.1 ml) and assayed according to the above assay method.

Compound	Relative Activity (%)
CCO [ethanol]	0
O=C(CO)[C@@H](O)[C@H](O)[C@H](O)CO [fructose]	31.4
O=C[C@H](O)[C@@H](O)[C@@H](O)[C@H](O)CO [galactose]	56.1
O=C[C@H](O)[C@@H](O)[C@H](O)[C@H](O)CO [glucose]	80.0
OCC(O)CO [glycerol]	0
O[C@H]1[C@H](O)[C@@H](O)[C@H](O)[C@@H](O)[C@H]1O [inositol]	0
OC[C@H]1O[C@@H](O[C@H]2[C@H](O)[C@@H](O)C(O)O[C@@H]2CO)[C@H](O)[C@@H](O)[C@H]1O (stereo partly drawn) [lactose]	58.2
OC[C@H]1O[C@H](O[C@H]2[C@H](O)[C@@H](O)[C@@H](O[C@H]3[C@H](O)[C@@H](O)[C@@H](O[C@H]4[C@H](O)[C@@H](O)[C@@H](O[C@H]5[C@H](O)[C@@H](O)[C@@H](O[C@H]6[C@H](O)[C@@H](O)[C@@H](O[C@H]7[C@H](O)[C@@H](O)C(O)O[C@@H]7CO)O[C@@H]6CO)O[C@@H]5CO)O[C@@H]4CO)O[C@@H]3CO)O[C@@H]2CO)[C@H](O)[C@@H](O)[C@@H]1O (stereo partly drawn) [maltoheptaose]	22.4
OC[C@H]1O[C@H](O[C@H]2[C@H](O)[C@@H](O)[C@@H](O[C@H]3[C@H](O)[C@@H](O)[C@@H](O[C@H]4[C@H](O)[C@@H](O)[C@@H](O[C@H]5[C@H](O)[C@@H](O)[C@@H](O[C@H]6[C@H](O)[C@@H](O)C(O)O[C@@H]6CO)O[C@@H]5CO)O[C@@H]4CO)O[C@@H]3CO)O[C@@H]2CO)[C@H](O)[C@@H](O)[C@@H]1O (stereo partly drawn) [maltohexaose]	28.6
OC[C@H]1O[C@H](O[C@H]2[C@H](O)[C@@H](O)[C@@H](O[C@H]3[C@H](O)[C@@H](O)[C@@H](O[C@H]4[C@H](O)[C@@H](O)[C@@H](O[C@H]5[C@H](O)[C@@H](O)C(O)O[C@@H]5CO)O[C@@H]4CO)O[C@@H]3CO)O[C@@H]2CO)[C@H](O)[C@@H](O)[C@@H]1O (stereo partly drawn) [maltopentaose]	36.4
OC[C@H]1O[C@H](O[C@H]2[C@H](O)[C@@H](O)[C@H](O)O[C@@H]2CO)[C@H](O)[C@@H](O)[C@@H]1O [maltose]	100
OC[C@H]1O[C@H](O[C@H]2[C@H](O)[C@@H](O)[C@@H](O[C@H]3[C@H](O)[C@@H](O)[C@@H](O[C@H]4[C@H](O)[C@@H](O)C(O)O[C@@H]4CO)O[C@@H]3CO)O[C@@H]2CO)[C@H](O)[C@@H](O)[C@@H]1O (stereo partly drawn) [maltotetraose]	60.3
OC[C@H]1O[C@H](O[C@H]2[C@H](O)[C@@H](O)[C@@H](O[C@H]3[C@H](O)[C@@H](O)C(O)O[C@@H]3CO)O[C@@H]2CO)[C@H](O)[C@@H](O)[C@@H]1O (stereo partly drawn) [maltotriose]	77.4
O=C[C@@H](O)[C@@H](O)[C@H](O)[C@H](O)CO [mannose]	52.4
OC[C@H]1O[C@H](OC[C@H]2O[C@H](O[C@]3(CO)O[C@H](CO)[C@@H](O)[C@@H]3O)[C@H](O)[C@@H](O)[C@@H]2O)[C@H](O)[C@@H](O)[C@H]1O [raffinose]	0
OC[C@@H](O)[C@@H](O)[C@H](O)[C@@H](O)CO [sorbitol]	0
OC[C@H]1O[C@@](CO)(O[C@H]2O[C@H](CO)[C@@H](O)[C@H](O)[C@H]2O)[C@@H](O)[C@@H]1O [sucrose]	0
O=C[C@H](O)[C@@H](O)[C@H](O)CO [xylose]	53.7

test system: maltose dehydrogenase (acceptor); assay: not given; format: biochemical, Staphylococcus sp. B-0875; conditions: not given
Description: as §1
Metallic ions, EDTA or KCN shown in Table 4 is added to the reaction mixture as in the assay method, and the effect thereof is measured. The results are shown in […]

Compound	Relative Activity (%)
O=C(O)CN(CCN(CC(=O)O)CC(=O)O)CC(=O)O [EDTA]	73

same assay, conditions: 1.0 mM additive in reaction mixture; no addition = 100

Compound	Relative Activity (%)
[Ba+2].[Cl-].[Cl-] [BaCl2]	61.2
[Ca+2].[Cl-].[Cl-] [CaCl2]	101
[Cl-].[Cl-].[Co+2] [CoCl2]	17.9
[Cl][Cu][Cl] [CuCl2]	0
[Cl-].[Li+] [LiCl]	95
[Cl-].[Cl-].[Mg+2] [MgCl2]	106
[Cl][Mn][Cl] [MnCl2]	13.4
[N-]=[N+]=[N-].[Na+] [NaN3]	95
[Cl-].[Cl-].[Zn+2] [ZnCl2]	4.5

test system: maltose dehydrogenase (acceptor); assay: Hydrogen acceptor (coenzyme) of maltose dehydrogenase (acceptor) in oxidation of maltose; format: biochemical, Staphylococcus sp. B-0875; set-up: Relative Activity (%): concentration or dose not given beside the values; conditions: as hydrogen acceptor; Reaction pH 7.5; substrate maltose
Description: as §1
Hydrogen acceptor (coenzyme) of maltose dehydrogenase (acceptor) in the oxidative reaction (dehydrogenation) of maltose is measured according to the assay method. Maltose dehydrogenase (acceptor) of the present invention requires no NAD or NADP as a coenzyme. A decrease in soluble oxygen is observed at least whwn PMS, 1-methoxy-phenazine methosulfate (MPMS) or meldola blue is used as a hydrogen acceptor.

Compound	Relative Activity (%)
COc1cccc2c1nc1ccccc1[n+]2C [MPMS, 1-methoxy-phenazine methosulfate]	30
NC(=O)c1ccc[n+]([C@@H]2O[C@H](COP(=O)([O-])OP(=O)(O)OC[C@H]3O[C@@H](n4cnc5c(N)ncnc54)[C@H](O)[C@@H]3O)[C@@H](O)[C@H]2O)c1 [NAD, nicotine adenine dinucleotide]	0
NC(=O)c1ccc[n+]([C@@H]2O[C@H](COP(=O)([O-])OP(=O)(O)OC[C@H]3O[C@@H](n4cnc5c(N)ncnc54)[C@H](OP(=O)(O)O)[C@@H]3O)[C@@H](O)[C@H]2O)c1 [NADP, nicotine adenine dinucleotide phosphate]	0
COc1cc(-c2ccc(-[n+]3nc(-c4ccccc4)nn3-c3ccc([N+](=O)[O-])cc3)c(OC)c2)ccc1-[n+]1nc(-c2ccccc2)nn1-c1ccc([N+](=O)[O-])cc1 [NTB, nitrotetrazolium blue]	0
C[n+]1c2ccccc2nc2ccccc21 [PMS, phenazine methosulfate]	100
C[N+](C)=c1ccc2nc3c(ccc4ccccc43)oc-2c1 [meldola blue, 9-dimethylaminobenzophenazoxonium chloride]	20
CN(C)c1ccc2nc3ccc(=[N+](C)C)cc-3sc2c1 [methylene blue]	0

same assay, conditions: oxidative reaction of maltose

Compound	ability to act as hydrogen acceptor
CC(=O)Nc1cccc2c1nc1ccccc1[n+]2C [1-acetamide-phenazine methosulfate]	can also be a hydrogen acceptor
O=C1C(Cl)=CC(=Nc2ccc(O)cc2)C=C1Cl [2,6-dichlorophenolindophenol]	can also be a hydrogen acceptor
